Data taken from publication PMC3203539 (2011).
Read-outs that look alike come from different tables or passages of the source.

Key:
[1] = target: T1, Sth1 (ATPase subunit of RSCt, trimeric minimal RSC) (Saccharomyces cerevisiae, UniProt P32597); assay type: binding
T1 sequence (P32597 301-1097): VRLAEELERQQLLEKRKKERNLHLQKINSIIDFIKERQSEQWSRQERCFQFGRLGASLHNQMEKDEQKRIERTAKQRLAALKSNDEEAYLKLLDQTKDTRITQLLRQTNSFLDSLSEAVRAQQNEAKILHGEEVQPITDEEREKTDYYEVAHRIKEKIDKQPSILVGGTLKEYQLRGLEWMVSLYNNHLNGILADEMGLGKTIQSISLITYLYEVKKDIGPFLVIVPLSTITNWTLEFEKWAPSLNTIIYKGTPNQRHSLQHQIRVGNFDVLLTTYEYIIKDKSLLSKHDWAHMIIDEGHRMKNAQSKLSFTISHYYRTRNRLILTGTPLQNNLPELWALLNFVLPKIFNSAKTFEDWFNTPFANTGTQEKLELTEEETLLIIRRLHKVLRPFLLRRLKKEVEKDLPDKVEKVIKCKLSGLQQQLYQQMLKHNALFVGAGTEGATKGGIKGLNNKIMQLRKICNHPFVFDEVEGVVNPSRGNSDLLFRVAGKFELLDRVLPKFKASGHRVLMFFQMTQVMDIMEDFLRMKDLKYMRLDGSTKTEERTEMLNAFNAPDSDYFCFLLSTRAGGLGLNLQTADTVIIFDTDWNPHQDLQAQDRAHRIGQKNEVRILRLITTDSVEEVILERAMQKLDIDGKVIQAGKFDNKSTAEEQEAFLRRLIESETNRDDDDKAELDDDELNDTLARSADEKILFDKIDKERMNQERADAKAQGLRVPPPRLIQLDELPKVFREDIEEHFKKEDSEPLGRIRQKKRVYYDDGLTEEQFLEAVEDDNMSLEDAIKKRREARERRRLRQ
T1 sequence (Q12406 1-477 partner): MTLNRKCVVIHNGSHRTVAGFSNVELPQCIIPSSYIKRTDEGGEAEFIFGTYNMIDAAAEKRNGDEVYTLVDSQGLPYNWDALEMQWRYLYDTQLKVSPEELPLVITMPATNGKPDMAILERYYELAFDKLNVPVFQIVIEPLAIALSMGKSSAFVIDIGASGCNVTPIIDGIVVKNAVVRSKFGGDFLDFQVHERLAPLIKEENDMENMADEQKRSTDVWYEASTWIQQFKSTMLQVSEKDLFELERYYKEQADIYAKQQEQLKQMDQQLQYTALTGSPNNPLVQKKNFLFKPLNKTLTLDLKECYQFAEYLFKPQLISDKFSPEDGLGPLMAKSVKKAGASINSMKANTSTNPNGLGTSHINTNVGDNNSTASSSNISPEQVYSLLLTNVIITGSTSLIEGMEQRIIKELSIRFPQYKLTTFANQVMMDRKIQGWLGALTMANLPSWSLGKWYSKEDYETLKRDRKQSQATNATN
T1 sequence (Q05123 1-467 partner): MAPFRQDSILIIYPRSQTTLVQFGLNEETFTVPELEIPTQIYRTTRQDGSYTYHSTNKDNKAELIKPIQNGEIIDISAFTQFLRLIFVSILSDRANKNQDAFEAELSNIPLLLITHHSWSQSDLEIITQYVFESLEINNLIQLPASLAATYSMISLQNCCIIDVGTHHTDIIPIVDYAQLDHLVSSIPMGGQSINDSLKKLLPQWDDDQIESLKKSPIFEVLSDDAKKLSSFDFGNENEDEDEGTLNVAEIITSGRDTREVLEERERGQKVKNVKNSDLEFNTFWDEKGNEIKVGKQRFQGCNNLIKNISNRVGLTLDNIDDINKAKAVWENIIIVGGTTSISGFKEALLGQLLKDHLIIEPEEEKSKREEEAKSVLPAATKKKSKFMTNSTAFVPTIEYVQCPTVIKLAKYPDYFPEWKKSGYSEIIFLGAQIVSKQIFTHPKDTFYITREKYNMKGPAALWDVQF

[2] = target: T1, Sth1 (ATPase subunit of RSCt, trimeric minimal RSC); assay type: binding; remark: listed apart in the source

SMILES: Nc1ncnc2c1ncn2[C@@H]1O[C@H](COP(=O)(O)OP(=O)(O)NP(=O)(O)O)[C@@H](O)[C@H]1O [AMP-PNP]
- Kd [1]: 72 ± 6 µM

SMILES: Nc1ncnc2c1ncn2[C@@H]1O[C@H](COP(=O)(O)OP(=O)(O)O)[C@@H](O)[C@H]1O [ADP]
- Kd [2]: 14 ± 4 µM
